One block for each compound: values may come before it.
Key:
[1] = Volume of distribution in C57BL/6J mouse at 30 mg/kg, iv by LC-MS/MS analysis; assay type: ADME, organism-based; conditions: in vivo
[2] = biological target: T1, Calcium/calmodulin-dependent protein kinase type IV (Homo sapiens) (UniProt Q16566); test: Inhibition of CAMK4 (unknown origin) at 0.078 uM relative to control
T1 sequence (whole entry): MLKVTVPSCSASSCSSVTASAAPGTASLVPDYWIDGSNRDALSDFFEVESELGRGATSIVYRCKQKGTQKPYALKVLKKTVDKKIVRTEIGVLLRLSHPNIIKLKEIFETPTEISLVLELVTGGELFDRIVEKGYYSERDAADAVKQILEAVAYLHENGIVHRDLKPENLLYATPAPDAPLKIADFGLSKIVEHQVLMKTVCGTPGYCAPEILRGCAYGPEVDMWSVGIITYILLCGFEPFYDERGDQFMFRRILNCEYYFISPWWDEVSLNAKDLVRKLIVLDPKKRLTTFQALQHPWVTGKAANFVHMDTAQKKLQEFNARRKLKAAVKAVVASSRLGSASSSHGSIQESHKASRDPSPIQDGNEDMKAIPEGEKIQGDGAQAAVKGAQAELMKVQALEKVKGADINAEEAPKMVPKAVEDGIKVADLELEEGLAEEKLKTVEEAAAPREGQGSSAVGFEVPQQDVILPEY

[3] = biological target: T2, cGMP-dependent protein kinase 1 (Homo sapiens) (UniProt Q13976); test: Inhibition of PKG-alpha (unknown origin) at 0.078 uM relative to control
T2 sequence (whole entry): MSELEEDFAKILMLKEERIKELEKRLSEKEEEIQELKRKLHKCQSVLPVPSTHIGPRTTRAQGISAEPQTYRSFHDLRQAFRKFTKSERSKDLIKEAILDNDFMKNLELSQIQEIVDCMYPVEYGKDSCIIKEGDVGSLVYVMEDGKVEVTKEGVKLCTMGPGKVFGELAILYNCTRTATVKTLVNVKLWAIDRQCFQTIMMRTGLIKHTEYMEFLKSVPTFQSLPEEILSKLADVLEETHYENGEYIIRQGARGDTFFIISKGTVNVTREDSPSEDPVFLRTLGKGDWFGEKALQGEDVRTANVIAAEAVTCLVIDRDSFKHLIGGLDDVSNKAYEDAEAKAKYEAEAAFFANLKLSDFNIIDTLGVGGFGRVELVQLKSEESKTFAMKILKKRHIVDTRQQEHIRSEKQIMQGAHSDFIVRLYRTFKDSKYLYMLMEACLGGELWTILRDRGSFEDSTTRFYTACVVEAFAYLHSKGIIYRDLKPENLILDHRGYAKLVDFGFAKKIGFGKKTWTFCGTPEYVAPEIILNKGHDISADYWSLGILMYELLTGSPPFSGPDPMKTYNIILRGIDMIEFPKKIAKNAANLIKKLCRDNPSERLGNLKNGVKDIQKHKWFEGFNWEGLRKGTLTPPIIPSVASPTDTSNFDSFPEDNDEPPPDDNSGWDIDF

[4] = biological target: Fibroblast growth factor receptor 1 (Homo sapiens) (UniProt P11362); test: Inhibition of FGFR1 (unknown origin) at 0.078 uM relative to control
[5] = biological target: Vascular endothelial growth factor receptor 2 (Homo sapiens) (UniProt P35968); test: Inhibition of KDR (unknown origin) at 0.078 uM relative to control
[6] = biological target: Ribosomal protein S6 kinase alpha-5 (Homo sapiens) (UniProt O75582); test: Inhibition of MSK1 (unknown origin) at 0.45 uM relative to control
[7] = biological target: Vascular endothelial growth factor receptor 2 (Homo sapiens) (UniProt P35968); test: Inhibition of KDR (unknown origin) at 0.45 uM relative to control
[8] = biological target: Receptor-type tyrosine-protein kinase FLT3 (Homo sapiens) (UniProt P36888); test: Inhibition of FLT3 (unknown origin) at 0.45 uM relative to control
[9] = biological target: RAC-gamma serine/threonine-protein kinase (Homo sapiens) (UniProt Q9Y243); test: Inhibition of AKT3 (unknown origin) at 0.45 uM relative to control
[10] = biological target: Rho-associated protein kinase 2 (Homo sapiens) (UniProt O75116); test: Inhibition of ROCK2 (unknown origin) at 0.45 uM relative to control
[11] = biological target: RAF proto-oncogene serine/threonine-protein kinase (Homo sapiens) (UniProt P04049); test: Inhibition of c-Raf (unknown origin) at 0.45 uM relative to control
[12] = biological target: Protein kinase C epsilon type (Homo sapiens) (UniProt Q02156); test: Inhibition of PKC-epsilon (unknown origin) at 0.49 uM relative to control
[13] = biological target: Serine/threonine-protein kinase Sgk3 (Homo sapiens) (UniProt Q96BR1); test: Inhibition of SGK3 (unknown origin) at 0.49 uM relative to control
[14] = biological target: Serine/threonine-protein kinase pim-1 (Homo sapiens) (UniProt P11309); test: Inhibition of PIM1 (unknown origin) at 0.49 uM relative to control
[15] = system: Tyrosine-protein kinase ABL1 (Homo sapiens), P00519 [G250E]; test: Inhibition of ABL1 G250E mutant (unknown origin) at 0.49 uM relative to control
[16] = biological target: Serine/threonine-protein kinase Nek6 (Homo sapiens) (UniProt Q9HC98); test: Inhibition of NEK6 (unknown origin) at 0.49 uM relative to control
[17] = biological target: Mitogen-activated protein kinase 1 (Homo sapiens) (UniProt P28482); test: Inhibition of Erk2 (unknown origin) at 0.49 uM relative to control
[18] = biological target: Tyrosine-protein kinase Fgr (Homo sapiens) (UniProt P09769); test: Inhibition of FGR (unknown origin) at 0.49 uM relative to control
[19] = biological target: STE20-like serine/threonine-protein kinase (Homo sapiens) (UniProt Q9H2G2); test: Inhibition of SLK (unknown origin) at 0.49 uM relative to control
[20] = biological target: MAP/microtubule affinity-regulating kinase 4 (Homo sapiens) (UniProt Q96L34); test: Inhibition of MARK4 (unknown origin) at 0.49 uM relative to control
[21] = biological target: Serine/threonine-protein kinase 10 (Homo sapiens) (UniProt O94804); test: Inhibition of LOK (unknown origin) at 0.49 uM relative to control
Chain of Serine/threonine-protein kinase 10 (Homo sapiens) (O94804 whole entry, looked up): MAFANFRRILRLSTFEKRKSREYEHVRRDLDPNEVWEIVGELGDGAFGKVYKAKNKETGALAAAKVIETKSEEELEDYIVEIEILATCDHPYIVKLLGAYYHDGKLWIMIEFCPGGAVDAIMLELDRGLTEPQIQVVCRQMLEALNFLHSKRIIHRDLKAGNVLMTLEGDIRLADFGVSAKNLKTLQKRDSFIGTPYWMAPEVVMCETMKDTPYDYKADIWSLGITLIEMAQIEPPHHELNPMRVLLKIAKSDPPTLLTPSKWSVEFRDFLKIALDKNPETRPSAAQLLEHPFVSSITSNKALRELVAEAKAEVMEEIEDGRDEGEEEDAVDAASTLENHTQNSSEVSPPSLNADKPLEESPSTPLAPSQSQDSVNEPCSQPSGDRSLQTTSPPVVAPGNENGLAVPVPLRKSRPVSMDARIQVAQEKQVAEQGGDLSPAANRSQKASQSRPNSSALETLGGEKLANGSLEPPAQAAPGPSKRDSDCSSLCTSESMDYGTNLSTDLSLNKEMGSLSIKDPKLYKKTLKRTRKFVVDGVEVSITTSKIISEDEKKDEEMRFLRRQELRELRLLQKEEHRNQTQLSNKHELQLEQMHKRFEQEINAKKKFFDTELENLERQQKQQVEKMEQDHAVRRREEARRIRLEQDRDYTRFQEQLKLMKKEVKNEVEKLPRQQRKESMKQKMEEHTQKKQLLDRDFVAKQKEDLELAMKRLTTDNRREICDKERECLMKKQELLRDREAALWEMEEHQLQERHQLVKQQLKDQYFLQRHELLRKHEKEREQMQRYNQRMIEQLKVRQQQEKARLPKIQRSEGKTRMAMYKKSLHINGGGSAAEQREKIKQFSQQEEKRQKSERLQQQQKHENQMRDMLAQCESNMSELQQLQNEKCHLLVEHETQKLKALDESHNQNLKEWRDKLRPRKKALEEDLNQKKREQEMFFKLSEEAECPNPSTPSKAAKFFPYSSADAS

Chain of Vascular endothelial growth factor receptor 2 (Homo sapiens) (P35968 whole entry): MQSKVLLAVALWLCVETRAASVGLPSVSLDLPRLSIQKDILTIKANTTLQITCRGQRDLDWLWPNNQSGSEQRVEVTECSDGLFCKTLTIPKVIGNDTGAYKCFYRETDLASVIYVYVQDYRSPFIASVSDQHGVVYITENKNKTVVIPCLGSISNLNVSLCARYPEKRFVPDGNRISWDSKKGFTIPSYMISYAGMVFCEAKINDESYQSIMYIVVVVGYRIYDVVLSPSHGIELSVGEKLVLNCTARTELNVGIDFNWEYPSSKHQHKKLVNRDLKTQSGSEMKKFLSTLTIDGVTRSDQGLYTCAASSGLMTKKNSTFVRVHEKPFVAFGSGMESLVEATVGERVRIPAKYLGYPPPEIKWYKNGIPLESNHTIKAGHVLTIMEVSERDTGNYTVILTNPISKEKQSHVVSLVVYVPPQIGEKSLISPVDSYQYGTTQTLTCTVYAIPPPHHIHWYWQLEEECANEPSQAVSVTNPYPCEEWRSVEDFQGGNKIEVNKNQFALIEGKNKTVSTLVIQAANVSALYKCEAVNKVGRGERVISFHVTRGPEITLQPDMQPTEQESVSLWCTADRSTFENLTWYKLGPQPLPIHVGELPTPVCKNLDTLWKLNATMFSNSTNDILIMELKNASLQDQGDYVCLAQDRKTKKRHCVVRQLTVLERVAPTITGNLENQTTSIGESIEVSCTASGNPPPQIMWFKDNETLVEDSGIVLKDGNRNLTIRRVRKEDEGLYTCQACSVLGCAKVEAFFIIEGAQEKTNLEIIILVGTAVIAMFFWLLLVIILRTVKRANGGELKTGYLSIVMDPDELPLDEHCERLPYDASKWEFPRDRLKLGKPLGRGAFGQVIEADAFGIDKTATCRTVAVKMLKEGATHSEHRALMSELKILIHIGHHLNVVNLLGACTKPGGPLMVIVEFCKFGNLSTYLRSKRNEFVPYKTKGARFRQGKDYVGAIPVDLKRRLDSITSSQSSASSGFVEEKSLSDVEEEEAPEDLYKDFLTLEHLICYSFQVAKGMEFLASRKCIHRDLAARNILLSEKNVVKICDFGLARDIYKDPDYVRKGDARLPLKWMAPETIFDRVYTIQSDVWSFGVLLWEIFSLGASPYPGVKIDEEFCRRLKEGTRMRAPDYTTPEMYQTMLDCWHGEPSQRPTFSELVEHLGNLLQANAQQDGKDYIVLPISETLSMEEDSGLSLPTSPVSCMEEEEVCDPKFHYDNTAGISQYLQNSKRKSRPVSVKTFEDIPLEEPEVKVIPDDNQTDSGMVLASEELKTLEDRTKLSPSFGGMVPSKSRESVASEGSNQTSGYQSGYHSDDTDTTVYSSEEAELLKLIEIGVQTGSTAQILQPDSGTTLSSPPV
Chain of Mitogen-activated protein kinase 1 (Homo sapiens) (P28482 whole entry): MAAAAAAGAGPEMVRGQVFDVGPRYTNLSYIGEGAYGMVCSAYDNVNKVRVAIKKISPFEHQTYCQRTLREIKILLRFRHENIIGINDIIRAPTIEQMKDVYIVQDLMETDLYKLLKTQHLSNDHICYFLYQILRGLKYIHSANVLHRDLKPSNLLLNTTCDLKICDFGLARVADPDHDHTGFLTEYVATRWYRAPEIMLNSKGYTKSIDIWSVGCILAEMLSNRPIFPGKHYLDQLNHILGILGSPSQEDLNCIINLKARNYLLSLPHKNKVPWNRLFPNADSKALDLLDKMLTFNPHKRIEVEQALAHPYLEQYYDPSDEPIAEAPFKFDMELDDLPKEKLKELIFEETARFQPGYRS
Chain of Serine/threonine-protein kinase Sgk3 (Homo sapiens) (Q96BR1 whole entry): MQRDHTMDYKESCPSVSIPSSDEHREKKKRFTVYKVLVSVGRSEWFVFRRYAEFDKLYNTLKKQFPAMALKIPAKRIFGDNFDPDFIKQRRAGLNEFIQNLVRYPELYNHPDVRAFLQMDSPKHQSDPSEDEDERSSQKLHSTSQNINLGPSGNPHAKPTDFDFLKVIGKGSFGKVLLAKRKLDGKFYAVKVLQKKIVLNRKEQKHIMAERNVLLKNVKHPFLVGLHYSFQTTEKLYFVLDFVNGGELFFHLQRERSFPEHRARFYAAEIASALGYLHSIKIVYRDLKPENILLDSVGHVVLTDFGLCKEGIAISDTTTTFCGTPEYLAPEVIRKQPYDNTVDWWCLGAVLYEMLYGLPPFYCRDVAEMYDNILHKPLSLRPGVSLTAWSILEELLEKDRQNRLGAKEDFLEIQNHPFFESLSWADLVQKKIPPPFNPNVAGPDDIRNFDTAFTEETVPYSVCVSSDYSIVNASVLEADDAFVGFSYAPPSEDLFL
Chain of Tyrosine-protein kinase Fgr (Homo sapiens) (P09769 2-529 limits assumed): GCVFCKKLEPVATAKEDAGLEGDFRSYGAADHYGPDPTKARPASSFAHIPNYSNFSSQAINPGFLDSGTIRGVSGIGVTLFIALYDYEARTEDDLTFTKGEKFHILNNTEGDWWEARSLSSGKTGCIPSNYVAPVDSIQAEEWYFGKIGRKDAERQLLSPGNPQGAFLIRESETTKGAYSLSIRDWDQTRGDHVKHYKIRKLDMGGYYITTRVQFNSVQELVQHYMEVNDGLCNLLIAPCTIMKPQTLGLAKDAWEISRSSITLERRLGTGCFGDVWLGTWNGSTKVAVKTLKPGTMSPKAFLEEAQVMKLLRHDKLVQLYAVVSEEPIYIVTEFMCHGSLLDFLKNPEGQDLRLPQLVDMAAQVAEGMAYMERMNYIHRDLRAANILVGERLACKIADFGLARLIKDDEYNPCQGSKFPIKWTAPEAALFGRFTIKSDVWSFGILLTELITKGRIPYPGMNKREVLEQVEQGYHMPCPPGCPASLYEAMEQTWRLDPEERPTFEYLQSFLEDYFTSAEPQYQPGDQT
Chain of STE20-like serine/threonine-protein kinase (Homo sapiens) (Q9H2G2 whole entry, looked up): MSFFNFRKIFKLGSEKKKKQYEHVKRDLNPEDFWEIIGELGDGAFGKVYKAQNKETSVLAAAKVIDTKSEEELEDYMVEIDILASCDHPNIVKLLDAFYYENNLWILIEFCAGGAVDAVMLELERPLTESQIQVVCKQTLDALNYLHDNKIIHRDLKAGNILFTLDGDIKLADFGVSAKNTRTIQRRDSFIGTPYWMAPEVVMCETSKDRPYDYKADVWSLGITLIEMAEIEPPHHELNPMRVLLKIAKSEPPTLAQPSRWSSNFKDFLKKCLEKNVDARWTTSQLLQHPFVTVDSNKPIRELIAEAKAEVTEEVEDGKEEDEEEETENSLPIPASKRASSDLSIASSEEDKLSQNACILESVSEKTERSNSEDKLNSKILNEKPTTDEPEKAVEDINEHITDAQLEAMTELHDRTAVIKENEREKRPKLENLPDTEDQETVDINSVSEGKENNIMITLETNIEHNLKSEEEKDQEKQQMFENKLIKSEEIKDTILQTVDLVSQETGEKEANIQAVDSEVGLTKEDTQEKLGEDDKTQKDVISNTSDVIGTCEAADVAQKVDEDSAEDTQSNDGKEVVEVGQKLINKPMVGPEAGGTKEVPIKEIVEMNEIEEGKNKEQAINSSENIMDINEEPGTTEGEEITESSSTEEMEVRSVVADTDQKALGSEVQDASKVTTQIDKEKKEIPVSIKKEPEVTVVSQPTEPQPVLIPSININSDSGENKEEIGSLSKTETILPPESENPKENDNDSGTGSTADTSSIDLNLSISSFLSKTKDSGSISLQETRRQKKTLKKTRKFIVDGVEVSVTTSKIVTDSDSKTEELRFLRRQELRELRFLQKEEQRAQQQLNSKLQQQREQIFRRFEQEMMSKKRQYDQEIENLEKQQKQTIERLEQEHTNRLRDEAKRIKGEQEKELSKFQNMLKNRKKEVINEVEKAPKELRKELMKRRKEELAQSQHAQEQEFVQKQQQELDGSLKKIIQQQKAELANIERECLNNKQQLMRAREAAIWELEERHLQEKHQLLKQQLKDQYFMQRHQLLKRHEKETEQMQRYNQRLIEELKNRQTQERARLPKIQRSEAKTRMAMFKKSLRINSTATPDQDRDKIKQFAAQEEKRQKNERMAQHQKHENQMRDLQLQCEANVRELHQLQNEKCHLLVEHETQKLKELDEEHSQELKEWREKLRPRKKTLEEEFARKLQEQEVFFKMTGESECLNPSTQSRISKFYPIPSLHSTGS

Vd [1]: 0.91 L/kg
inhibition [2]: 6.7%
inhibition [3]: -3.3%
inhibition [4]: -2.7%
inhibition [5]: 17.3%
SMILES: COC(=O)Nc1noc2cc(-c3c(-c4ccccn4)n[nH]c3C)ccc12

inhibition [6]: 1.3%
inhibition [7]: 35.7%
inhibition [8]: 96.7%
inhibition [9]: 1.3%
inhibition [10]: 0.7%
inhibition [11]: 7%
SMILES: Cc1n[nH]c(C)c1-c1ccc2c(NC(=O)c3ccc(N4CCN(C)CC4)cc3)n[nH]c2c1

inhibition [12]: 4.7%
inhibition [13]: 1.3%
inhibition [14]: 9%
inhibition [15]: 23.7%
inhibition [16]: 2.7%
inhibition [17]: -0.3%
inhibition [18]: -4%
inhibition [19]: 4.7%
inhibition [20]: 8.7%
inhibition [21]: 9.7%
SMILES: Cc1[nH]nc(C2CC2)c1-c1ccc2c(NC(=O)C3CC3)noc2c1

Source: ChEMBL document CHEMBL4052759, “Discovery of DS79182026: A potent orally active hepcidin production inhibitor” (Bioorg Med Chem Lett, 2017)
